{"source": "patent US20120171133A1", "about": "“Modulation of Dynein in Skin” (AVON PRODUCTS, INC., priority 2010, published 2012)", "key": {"[1]": {"tested_on": "mRNA for the heavy chain DYNC1H1 of cytoplasmic dynein", "assay": "Dynein modulation assay (Panomics Quantigene multiplex, branched DNA) in fibroblasts", "format": "cell-based, human", "conditions": "fibroblasts (F), 24 hours", "procedure": "(§1) Normal human dermal fibroblasts or keratinocytes were cultured in 96-well tissue culture treated plates, containing appropriate culture medium. Stock solution of actives were made in an appropriate vehicle (water/Ethanol/Propylene glycol). Cells were treated with test material or respective vehicle control diluted in growth medium for 24 hours in a humidified 37° C. Incubator with 10% CO2. After incubation, growth medium from each plate was removed and 100 μL of lysis buffer was added to the wells and placed in 37° C. Incubator with 10% CO2 for 30 minutes. At the end of incubation, the cells are collected in freezer plates and placed in −80° C. freezer, until analysis. Changes in mRNA for Dynein after treatment were analyzed using Panomics Quantigene multiplex assay that employs a branched DNA technology, following manufacturer's instructions (Affymetrix, Calif.). Percent increase (up-regulation) or decrease (down-regulation) in mRNA for the heavy chain DYNC1H1 of cytoplasmic dynein was calculated by comparing the test results to the control. The percent up-regulation or down-regulation is converted to a scaled score as shown below in Table 3."}, "[2]": {"tested_on": "mRNA for the heavy chain DYNC1H1 of cytoplasmic dynein", "assay": "Dynein modulation assay (Panomics Quantigene multiplex, branched DNA) in keratinocytes", "format": "cell-based, human", "conditions": "for Effect (down-regulation scale) / Effect (up-regulation scale): keratinocytes (K), 24 hours", "procedure": "as §1"}}, "data": [{"smiles": "CCC=CCC=CCCO", "note": "[3,6-Nonadienol]", "values": [{"measurement": "Effect (down-regulation scale)", "setting": "[1]; Conc. 0.01%", "value": "− (21-40)"}]}, {"smiles": "O=C(O)c1cc(Cl)ccc1O", "note": "[5-Chlorosalicylic acid]", "values": [{"measurement": "Effect (down-regulation scale)", "setting": "[2]; Conc. 0.1%", "value": "−− (41-60)"}, {"measurement": "reduction of mRNA for the heavy chain DYNC1H1 of cytoplasmic dynein", "setting": "[2]; keratinocytes, p=0.02", "value": 45.03, "unit": "%"}]}, {"smiles": "CC1=C(CC/C(C)=C/COC[C@@H](O)[C@@H](O)[C@H](O)[C@H](O)CO)C(C)(C)C(C)CC1", "note": "(stereo partly drawn) [Chalmicrin, 1-O—[(E)-3-Methyl-5-(2,5,6,6-tetramethyl-1-cyclohexen-1-yl)-2-pentenyl]-D-mannitol]", "values": [{"measurement": "Effect (up-regulation scale)", "setting": "[2]; Conc. 0.0001%", "value": "++++ (>81)"}]}, {"smiles": "CC(C)CN(Cc1ccc(OS(C)(=O)=O)cc1)S(=O)(=O)c1ccccc1", "note": "[Compound 1]", "values": [{"measurement": "Effect (up-regulation scale)", "setting": "[1]; Conc. 0.00005%", "value": "++ (41-60)"}]}, {"smiles": "CCCCCCCC(=O)Nc1ccc(N2CCN(C(=O)CC(C)(C)C)CC2)cc1", "note": "[Compound 2]", "values": [{"measurement": "Effect (up-regulation scale)", "setting": "[2]; Conc. 0.0005%", "value": "++ (41-60)"}]}, {"smiles": "CCCCc1ccc(C(=O)Nc2cccc(C3NC(=S)N(C)C(C)=C3C(=O)OCCOC)c2)cc1", "note": "(stereo not shown) [Compound 3]", "values": [{"measurement": "Effect (up-regulation scale)", "setting": "[1]; Conc. 0.00005%", "value": "++ (41-60)"}]}, {"smiles": "CCOCCCNC(=O)c1coc(CN(CCCOCC)C(=O)Nc2ccccc2C)n1", "note": "[Compound 4]", "values": [{"measurement": "Effect (up-regulation scale)", "setting": "[1]; Conc. 0.00005%", "value": "++ (41-60)"}]}, {"smiles": "CCOc1ccc(C(=O)CC(Sc2ccc(Cl)cc2)C(=O)O)cc1", "note": "(stereo not shown) [Compound 5]", "values": [{"measurement": "Effect (up-regulation scale)", "setting": "[1]; Conc. 0.00001%", "value": "++ (41-60)"}]}, {"smiles": "CCOCCCNC(=O)c1coc(CN(CCCOCC)C(=O)c2cccc(Br)c2)n1", "note": "[Compound 6]", "values": [{"measurement": "Effect (down-regulation scale)", "setting": "[2]; Conc. 0.0005%", "value": "− (21-40)"}]}, {"smiles": "CCCCC(CC)C(=O)Nc1ccc(N2CCN(C(=O)C3CCCCC3)CC2)cc1", "note": "(stereo not shown) [Compound 7]", "values": [{"measurement": "Effect (down-regulation scale)", "setting": "[2]; Conc. 0.00005%", "value": "− (21-40)"}]}, {"smiles": "CCc1ccccc1NC(=O)N(Cc1ccc(OS(C)(=O)=O)cc1)CC(C)C", "note": "[Compound 8]", "values": [{"measurement": "Effect (down-regulation scale)", "setting": "[1]; Conc. 0.0005%", "value": "− (21-40)"}]}, {"smiles": "CC/C=C\\CCCCCO", "note": "[cis-6-Nonenol]", "values": [{"measurement": "Effect (down-regulation scale)", "setting": "[2]; Conc. 0.0001%", "value": "− (21-40)"}]}]}
